Reference: patent publication US12441725B2, “ISO-citrate dehydrogenase (IDH) inhibitor” (ZHEJIANG METON PHARMACEUTICAL CO., LTD, priority 2019, dated 2025)

Key:
IDH1 R132H = target: T1, IDH1 R132H (Homo sapiens, UniProt O75874, R132H); assay: Biochemical assay for IDH inhibition (NADPH fluorescence), mutant IDH1 R132H; details: 50 nM IDH1-R132H, 1 hour pre-incubation, in triplet
T1 construct: 6xHis
How it was run: (§1)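 The read-out was the linear-phase loss of NADPH fluorescence (340/460 nm) over 15 min, background-subtracted and normalized to DMSO wells, giving triplicate IC50 values. Beforehand, R132H (50 nM) or R132C (25 nM) was exposed to compound for 1 h at room temperature with 1.33 mM α-KG at pH 7.5, and the reaction was triggered by adding an 80 μM NADPH solution.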

IDH1 R132C = target: T2, IDH1 R132C (Homo sapiens, UniProt O75874, R132C); assay: Biochemical assay for IDH inhibition (NADPH fluorescence), mutant IDH1 R132C; details: 25 nM IDH1-R132C, 1 hour pre-incubation, in triplet
T2 construct: 6xHis
How it was run: as §1

[1] = target: T3, IDH (endogenous IDH1 R132C) in HT1080 cell (Homo sapiens, UniProt O75874, R132C); assay: Cell-based assay for IDH inhibition (decrease of D-2-HG) in HT1080 cells; details: human fibrosarcoma cell line HT1080, 16 hours treatment, D-2-HG by LC-MS, in triplet
T3 construct: which harbor endogenous heterozygous IDH1 R132C and R132H mutation respectively and accumulate D-2-HG
How it was run: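 LC-MS/MS quantification of D-2-HG, normalized to glutamate, follows a 16 h compound exposure of IDH1 R132C HT1080 cells in DMEM with 10% FBS. Extraction uses pre-chilled 40% methanol/40% acetonitrile in water. Triplicate determinations; IC50 from D-2-HG levels relative to DMSO-treated cells.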

T3 sequence (O75874 2-414 R132C): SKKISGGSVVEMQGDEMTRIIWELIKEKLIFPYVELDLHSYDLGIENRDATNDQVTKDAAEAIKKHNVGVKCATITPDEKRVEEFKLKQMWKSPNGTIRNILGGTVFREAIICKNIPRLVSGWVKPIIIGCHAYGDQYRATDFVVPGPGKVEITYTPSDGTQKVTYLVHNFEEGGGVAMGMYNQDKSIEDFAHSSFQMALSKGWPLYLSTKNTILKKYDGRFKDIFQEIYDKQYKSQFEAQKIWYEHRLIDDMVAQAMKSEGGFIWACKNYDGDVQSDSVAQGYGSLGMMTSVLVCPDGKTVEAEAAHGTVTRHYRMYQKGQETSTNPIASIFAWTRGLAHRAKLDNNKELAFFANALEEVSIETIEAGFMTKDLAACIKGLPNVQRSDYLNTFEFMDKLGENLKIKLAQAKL
T2 sequence (O75874 whole entry R132C): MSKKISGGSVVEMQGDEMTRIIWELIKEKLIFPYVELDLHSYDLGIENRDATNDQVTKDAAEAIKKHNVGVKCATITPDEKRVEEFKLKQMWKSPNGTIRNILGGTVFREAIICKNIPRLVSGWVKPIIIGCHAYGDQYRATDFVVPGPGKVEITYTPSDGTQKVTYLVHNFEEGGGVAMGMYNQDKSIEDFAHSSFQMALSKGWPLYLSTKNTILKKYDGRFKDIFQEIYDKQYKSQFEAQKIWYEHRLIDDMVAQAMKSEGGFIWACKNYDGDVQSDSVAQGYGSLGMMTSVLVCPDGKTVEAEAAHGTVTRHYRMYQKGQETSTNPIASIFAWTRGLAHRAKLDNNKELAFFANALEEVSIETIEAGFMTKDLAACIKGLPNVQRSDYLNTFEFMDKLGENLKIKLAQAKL
T1 sequence (O75874 whole entry R132H): as the sequence (O75874 whole entry R132C) above, with C132H counted along it

| SMILES | IC50 (IDH1 R132H) [nM] | IC50 (IDH1 R132C) [nM] | IC50 [1] [nM] |
| --- | --- | --- | --- |
| CCN1Cc2c(ccnc2N[C@@H](C)c2ccc(Oc3ccnc(C(C)(C)C)c3)c(F)c2)C1=O [Compound 25, (S)-4-((1-(4-((2-(tert-butyl)pyridin-4-yl)oxy)-3-fluorophenyl)ethyl)amino)-2-ethyl-2,3-dihydro-1H-pyrrolo[3,4-c]pyridin-1-one] | 100 to 500 | 100 to 500 | 500 to 1000 |
| CCN1Cc2c(N[C@@H](C)c3cn(-c4ccc(F)cc4)cn3)ncc(F)c2C1=O [Compound 57, (S)-2-ethyl-7-fluoro-4-((1-(1-(4-fluorophenyl)-1H-imidazol-4-yl)ethyl)amino)-2,3-dihydro-1H-pyrrolo[3,4-c]pyridin-1-one] | > 1000 | > 1000 | > 1000 |
| CCN1Cc2c(ccnc2N[C@@H](C)c2cc(F)c(-c3cc(C(C)(C)C)ccn3)cc2F)C1=O [Compound 108, (S)-4-((1-(4-(4-(tert-butyl)pyridin-2-yl)-2,5-difluorophenyl)ethyl)amino)-2-ethyl-2,3-dihydro-1H-pyrrolo[3,4-c]pyridin-1-one] | < 100 | < 100 | < 100 |

The next lines start with the values.

| IC50 (IDH1 R132H) [nM] | IC50 (IDH1 R132C) [nM] | IC50 [1] [nM] | SMILES |
| --- | --- | --- | --- |
| < 100 | 100 to 500 | 100 to 500 | CCN1Cc2c(ccnc2N[C@@H](C)c2cc(F)c(-c3ccnc(C(C)(C)C)n3)cc2F)C1=O [Compound 111, (S)-4-((1-(4-(2-(tert-butyl)pyrimidin-4-yl)-2,5-difluorophenyl)ethyl)amino)-2-ethyl-2,3-dihydro-1H-pyrrolo[3,4-c]pyridin-1-one] |
| < 100 | < 100 | < 100 | CCN1Cc2c(ccnc2N[C@@H](C)c2cc(F)c(-c3cc(C(C)(C)F)c(C(F)(F)F)cn3)cc2F)C1=O [Compound 148, (S)-4-((1-(2,5-difluoro-4-(4-(2-fluoropropan-2-yl)-5-(trifluoromethyl)pyridin-2-yl)phenyl)ethyl)amino)-2-ethyl-2,3-dihydro-1H-pyrrolo[3,4-c]pyridin-1-one] |
